# Laboratory results published in US4291164A, “Cephalosporin analogs and methods for production thereof” (Kyowa Hakko Kogyo Co., Ltd., priority 1978, dated 1981).
# Structures can show the parent of a compound that is named as a salt.
# What was measured:
# Assay type in all cases: cell-based
# [1] = test system: Klebsiella pneumoniae Y60; assay: Antibacterial activity, Heart Infusion Agar Dilution Method, Klebsiella pneumoniae Y60; settings: pH 7.2, read-out: Minimum Inhibitory Concentration
# [2] = test system: Escherichia coli Juhl; assay: Antibacterial activity, Heart Infusion Agar Dilution Method, Escherichia coli Juhl; settings: Escherichia coli Juhl; Heart Infusion Agar Dilution, pH 7.2; read-out: Minimum Inhibitory Concentration
# [3] = test system: Serratia marcescens T26; assay: Antibacterial activity, Heart Infusion Agar Dilution Method, Serratia marcescens T26; settings: for MIC: pH 7.2, read-out: Minimum Inhibitory Concentration
# [4] = test system: Proteus vulgaris 6897; assay: Antibacterial activity, Heart Infusion Agar Dilution Method, Proteus vulgaris 6897; settings: for MIC: pH 7.2, read-out: Minimum Inhibitory Concentration
# Procedure: (§1) The antibacterial activity of the compounds obtained in the above Examples 24, 26, 28, 30, 32, 34, 36, 38, 40 and 41 are determined by Heart Infusion Agar Dilution Method (pH 7.2). Cefazolin is used as a reference.
# [5] = test system: Pseudomonas putida F264; assay: Antibacterial activity, Heart Infusion Agar Dilution Method, Pseudomonas putida F264; settings: for MIC: pH 7.2, read-out: Minimum Inhibitory Concentration
# [6] = test system: Proteus mirabilis 1287; assay: Antibacterial activity, Heart Infusion Agar Dilution Method, Proteus mirabilis 1287; settings: for MIC: pH 7.2, read-out: Minimum Inhibitory Concentration
# Procedure: as §1
# [7] = test system: Proteus morganii KY4298; assay: Antibacterial activity, Heart Infusion Agar Dilution Method, Proteus morganii KY4298; settings: for MIC: Morganella morganii, pH 7.2, read-out: Minimum Inhibitory Concentration
# Procedure: as §1
# [8] = test system: Staphylococcus aureus 209p; assay: Antibacterial activity, Heart Infusion Agar Dilution Method, Staphylococcus aureus 209p; settings: for MIC: pH 7.2, read-out: Minimum Inhibitory Concentration
# Procedure: as §1
# [9] = test system: Klebsiella pneumoniae 8045; assay: Antibacterial activity, Heart Infusion Agar Dilution Method, Klebsiella pneumoniae 8045; settings: for MIC: pH 7.2, read-out: Minimum Inhibitory Concentration
# Procedure: as §1
# [10] = test system: Serratia marcescens T55; assay: Antibacterial activity, Heart Infusion Agar Dilution Method, Serratia marcescens T55; settings: for MIC: pH 7.2, read-out: Minimum Inhibitory Concentration
# [11] = test system: Staphylococcus aureus Smith; assay: Antibacterial activity, Heart Infusion Agar Dilution Method, Staphylococcus aureus Smith; settings: for MIC: pH 7.2, read-out: Minimum Inhibitory Concentration
# Procedure: as §1
# [12] = test system: Staphylococcus epidermidis; assay: Antibacterial activity, Heart Infusion Agar Dilution Method, Staphylococcus epidermidis; settings: for MIC: pH 7.2, read-out: Minimum Inhibitory Concentration
# Procedure: as §1
# [13] = test system: Proteus rettgeri KY4289; assay: Antibacterial activity, Heart Infusion Agar Dilution Method, Proteus rettgeri KY4289; settings: for MIC: Providencia rettgeri, pH 7.2, read-out: Minimum Inhibitory Concentration
# Procedure: as §1
# [14] = test system: Pseudomonas aeruginosa 145; assay: Antibacterial activity, Heart Infusion Agar Dilution Method, Pseudomonas aeruginosa 145; settings: for MIC: Pseudomonas aeruginosa, 145, pH 7.2, read-out: Minimum Inhibitory Concentration
# Procedure: as §1
# [15] = test system: Escherichia coli NIHJC2; assay: Antibacterial activity, Heart Infusion Agar Dilution Method, Escherichia coli NIHJC2; settings: Escherichia coli NIHJC2, Heart Infusion Agar Dilution, pH 7.2; for MIC: read-out: Minimum Inhibitory Concentration
# Procedure: as §1
SMILES,MIC [1] [µg/mL],MIC [2] [µg/mL],MIC [3] [µg/mL],MIC [4] [µg/mL],MIC [5] [µg/mL],MIC [6] [µg/mL],MIC [7] [µg/mL],MIC [8] [µg/mL],MIC [9] [µg/mL],MIC [10] [µg/mL],MIC [11] [µg/mL],MIC [12] [µg/mL],MIC [13] [µg/mL],MIC [14] [µg/mL],MIC [15] [µg/mL],other results
"N[C@@H](C(=O)N[C@H]1C(=O)N2C(C(=O)O)=CCC[C@H]12)c1ccccc1 (racemic) [Example 26, (±)-cis-7-[(R)-2-phenyl-2-aminoacetamido]-1-azabicyclo-[4,2,0]oct-2-en-8-on-2-carboxylic acid]",12.5,12.5,> 100,25,> 100,25,100,0.4,3.12,25,12.5,6.25,50,> 100,12.5,
"CON=C(C(=O)NC1C(=O)N2C(C(=O)O)=CC(C)CC12)c1csc(N)n1 (racemic) [Example 36, (±)-cis-7β-[2-(2-amino-4-thiazolyl)-2-methoxyiminoacetamido]-4β-methyl-2-carboxy-1-azabicyclo[4,2,0]oct-2-en-8-one]",,,,,,,,,,,,,,,,"Minimum Inhibitory Concentration ([3]; pH 7.2): 6.25 µg/mL; Minimum Inhibitory Concentration ([4]; pH 7.2): 0.78 µg/mL; Minimum Inhibitory Concentration ([5]; pH 7.2): 0.4 µg/mL; Minimum Inhibitory Concentration ([6]; pH 7.2): 0.78 µg/mL; Minimum Inhibitory Concentration ([7]; pH 7.2): 0.78 µg/mL; Minimum Inhibitory Concentration ([8]; pH 7.2): 50 µg/mL; Minimum Inhibitory Concentration ([9]; pH 7.2): 0.2 µg/mL; Minimum Inhibitory Concentration ([10]; pH 7.2): 3.12 µg/mL; Minimum Inhibitory Concentration ([11]; pH 7.2): 100 µg/mL; Minimum Inhibitory Concentration ([12]; pH 7.2): > 100 µg/mL; Minimum Inhibitory Concentration ([13]; pH 7.2): 0.4 µg/mL; Minimum Inhibitory Concentration ([14]; Pseudomonas aeruginosa 145, Heart Infusion Agar Dilution, pH 7.2): > 100 µg/mL; Minimum Inhibitory Concentration [15]: 0.2 µg/mL"
"CO/N=C(/C(=O)N[C@@H]1C(=O)N2C(C(=O)O)=CCC[C@H]12)c1csc(N)n1 (relative stereo) [Example 24, (±)-cis-7-[2-(2-amino-4-thiazolyl)-2-anti-methoxyimino-acetamido]-1-azabicyclo[4,2,0]oct-2-en-8-one-2-carboxylic acid]",1.56,1.56,3.12,0.4,0.78,0.78,0.78,100,0.2,1.56,> 100,100,0.1,> 100,0.78,
"CO/N=C(/C(=O)N[C@@H]1C(=O)N2C(C(=O)O)=C[C@@H](C)C[C@H]12)c1csc(N)n1 (relative stereo) [Example 34, (±)-cis-7β[2-(2-amino-4-thiazolyl)-2-anti-methoxyiminoacetamido]-4α-methyl-2-carboxy-1-azabicyclo[4,2,0]oct-2-en-8-one]",,0.78,25,< 0.05,,0.2,0.78,12.5,0.1,,25,25,0.1,> 100,0.4,

# Second part, led by results:
MIC [1] [µg/mL],MIC [2] [µg/mL],MIC [3] [µg/mL],MIC [4] [µg/mL],MIC [5] [µg/mL],MIC [6] [µg/mL],MIC [7] [µg/mL],MIC [8] [µg/mL],MIC [9] [µg/mL],MIC [10] [µg/mL],MIC [11] [µg/mL],MIC [12] [µg/mL],MIC [13] [µg/mL],MIC [14] [µg/mL],MIC [15] [µg/mL],SMILES,other results
100,25,> 100,> 100,> 100,> 100,> 100,0.4,6.25,> 100,1.56,3.12,> 100,> 100,50,"C[C@H]1C=C(C(=O)O)N2C(=O)[C@@H](NC(=O)[C@H](N)c3ccccc3)[C@H]2C1 (relative stereo) [Example 30, trifluoroacetate of (±)-cis-7β-[(R)-2-phenyl-2-aminoacetamido]-4β-methyl-2-carboxy-1-azabicyclo[4,2,0]oct-2-en-8-one]",
> 100,12.5,> 100,50,100,50,100,0.78,3.12,25,6.25,6.25,> 100,> 100,12.5,"C[C@@H]1C=C(C(=O)O)N2C(=O)[C@@H](NC(=O)[C@H](N)c3ccccc3)[C@H]2C1 (relative stereo) [Example 32, (±)-cis-7β-[(R)-2-phenyl-2-aminoacetamido]-4α-methyl-2-carboxy-1-azabicyclo[4,2,0]oct-2-en-8-one]",
